Experimental findings from PMC4506568, “Targeting a Dynamic Protein–Protein Interaction: Fragment Screening against the Malaria Myosin A Motor Complex” (Chemmedchem, 2014) are described below.

The test addresses T1, PfMTIPΔ60 (Plasmodium falciparum myosin A tail domain interacting protein, residues 61-204) (Plasmodium falciparum, UniProt Q8I4W8).
T1 construct: gene MTIP; residues 61-204 (N- and C-terminal domains, disordered N-terminal extension removed), N-terminal His tag kept, recombinant as previously described; 15N-labelled for NMR; free of myoA tail
The experiment in a line: 1H, […]-HSQC NMR titration. It counts as binding.

Broadly, the Kd is a measure of binding affinity in units of concentration. High values mean a looser complex, low ones a tighter complex.

Molecules are shown by their SMILES.

T1 sequence (Q8I4W8 entry or part of it, stated change not applied): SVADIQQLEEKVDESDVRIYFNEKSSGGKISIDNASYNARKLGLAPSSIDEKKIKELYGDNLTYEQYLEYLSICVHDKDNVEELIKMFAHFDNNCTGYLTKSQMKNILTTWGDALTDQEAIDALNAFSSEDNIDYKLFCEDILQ

Take `CN(C)Cc1ccc(CSCCN)o1` [compound 8, fragment 8]: the Kd came out at 22.5 ± 2.7 mM.
